Reference: article PMC12311606, “An efficient brain delivery system co-loaded with multiple components of Salvia miltiorrhiza for synergistic treatment of ischemic stroke” (Materials Today Bio, 2025)

What was measured:
[1] = Adsorption kinetic model fitting of the five components on the carrier; assay type: physicochemical; design: k, pseudo-first order: unit not given beside the values
Experimental: Preparation of W/HPDA/L nanoparticles: Briefly, 0.5 mL of TEOS were added over a stirred solution of 2 mL of NH3∙H2O solution in 100 mL of ethanol. The reaction mixture was vigorously stirred at room temperature for 3 h to obtain SiO2 nanoparticles. Then, 1.5 mL of APTES were dropped to the reaction mixture. Finally, SiO2-NH2 nanoparticles were collected by centrifugation at 10000 rpm for 10 min, then washed twice with ethanol and resuspended in ethanol for further use. As for the preparation of W@SiO2 nanoparticles, 1 mL of SiO2-NH2 nanoparticles and 4 mL of water components solution (1 mg RA and 12 mg SAB) were first mixed together. Under stirring for 12 h, the resultant W@SiO2 nanoparticles were acquired by centrifugation (10000 rpm, 10 min) and washed thrice with DI water. The total content of water-soluble in the supernatant (free RA and SAB) were determined by HPLC. W@SiO2 nanoparticles obtained by centrifugation were resuspended with Tris-HCl solution containing dopamine hydrochloride. PDA was prepared according to our precious report. This was followed by the addition of 2 mL of etching solution. Then, through centrifugation (12000 rpm, 5 min) and washing with ultrapure water three times, W/HPDA nanoparticles were acquired for later use. After dissolving 6 mg of lipid-soluble components (1 mg CPT, 2.5 mg TSI and 2.5 mg TSA) in 4 mL of ethanol, it was added to 1 mL of W/HPDA nanoparticles dispersed solution. After 12 h of stirring at room temperature, W/HPDA/L nanoparticles were collected by centrifugation and subsequently dispersed in water for further use. Similarly, HPDA was synthesized as previously described. 13 mg of water-soluble components solution (1 mg RA and 12 mg SAB) and 6 mg of lipid-soluble components (1 mg CPT, 2.5 mg TSI and 2.5 mg TSA) were dissolved in 4 mL PBS containing 0.1 % DMSO and added to 3 mL HPDA aqueous dispersion. The mixture was then stirred at room temperature for 12 h, centrifuged, and washed to obtain HPDA/WL nanoparticles. The total content of lipid-soluble in the supernatant (free CPT, TSI and TSA) were determined by HPLC.
An adsorption kinetic model was used to fit the effect of adsorption time on the adsorption performance of adsorbents, further speculating the mechanism of adsorption. The results of the adsorption kinetics of five components were fitted using the pseudo-first-order and pseudo-second-order model, respectively.

[2] = In vitro drug release in 1 % SDS (dialysis, HPLC); assay type: physicochemical; details: release from W/HPDA/L, 1 % SDS pH 6.5–6.8
Experimental: Five compounds were measured by HPLC at 0.5, 1, 2, 4, 8, 12 and 24 h. In order to elucidate the release mechanism of W/HPDA/L, release kinetic models (Ritger-Peppas model) were employed to fit the data available.

[3] = test system: ZO-1; assay: ZO-1 tension by FRET-based tension probes in bEnd.3 cells; assay type: cell-based; details: 15 min treatment, then removal and 15 min observation
Experimental: (§1) 6 × 10^4 bEnd.3 cells were seeded in the donor chamber of 24-well transwell inserts. […] The viability of bEnd.3 cells following borneol treatment was assessed using the Cell Counting Kit-8 (CCK-8) assay. We added 0.9 mL of PBS-based assay medium to blank 24-well culture plates and 0.2 mL of borneol (0, 100, 400 μM) to the apical side of the BBB layers. TEER was measured at 5, 10, and 15 min. Additionally, 100 nm silica nanoparticles and sodium fluorescein at the same concentrations were administered at three time points. […] The intracellular tension of the tight junction protein ZO-1 was evaluated using fluorescence resonance energy transfer (FRET)-based tension probes and cpstFRET analysis, as previously described. bEnd.3 cells were transfected with ZO-1 probes and incubated with 1000 μg/mL geneticin. After treating the cells with borneol for 15 min, the borneol was removed, and observations continued for an additional 15 min. Cells treated with Hanks' solution served as the control group. The cell images were taken with × 63 oil lens on a confocal microscope (SP5; Leica, Wetzlar, Germany). The CFP/FRET ratio was calculated using the equation 1/E = cerulean donor/venus acceptor.

[4] = test system: bEnd.3 cells; assay: Viability of bEnd.3 cells following borneol treatment (CCK-8); assay type: cell-based; details: 5 to 500 μmol/l
Experimental: as §1

[5] = test system: bEnd.3 cells; assay: In vitro BBB permeability (bEnd.3 transwell model); assay type: cell-based; details: 100 and 400 μmol borneol
Experimental: as §1, with “TEER was measured at 5, 10, and 15 min.” left out, “cpstFRET” left out

SMILES: C[C@H]1COC2=C1C(=O)C(=O)c1c2ccc2c1CCCC2(C)C [CPT, cryptotanshinone]
- Qe, pseudo-first order [1]: 4.60 mg/g
- Qe, pseudo-second order [1]: 5.06 mg/g
- k, pseudo-first order [1]: 0.76
- k, pseudo-second order [1]: 0.14
- Ritger-Peppas release exponent n [2]: n = 0.39
- Ritger-Peppas release model coefficient (y = k t^n) [2]: y = 19.26t^n

SMILES: O=C(/C=C/c1ccc(O)c2c1[C@H](C(=O)O[C@H](Cc1ccc(O)c(O)c1)C(=O)O)[C@@H](c1ccc(O)c(O)c1)O2)O[C@H](Cc1ccc(O)c(O)c1)C(=O)O [SAB, salvianolic acid B]
- Qe, pseudo-first order [1]: 18.27 mg/g
- Qe, pseudo-second order [1]: 21.95 mg/g
- k, pseudo-first order [1]: 0.27
- k, pseudo-second order [1]: 0.01
- Ritger-Peppas release exponent n [2]: n = 0.78
- Ritger-Peppas release model coefficient (y = k t^n) [2]: y = 8.41t^n

SMILES: N[C@@H](CCC(=O)O)C(=O)O [Glu, Glutamate, reference compound]
- ZO1 tension (CFP/FRET) [3]: increased and continued to rise even 15 min after Glu removal

SMILES: Cc1coc2c1C(=O)C(=O)c1c-2ccc2c(C)cccc12 [TSI, tanshinone I]
- Qe, pseudo-first order [1]: 4.50 mg/g
- Qe, pseudo-second order [1]: 5.21 mg/g
- k, pseudo-first order [1]: 0.53
- k, pseudo-second order [1]: 0.16
- Ritger-Peppas release exponent n [2]: n = 0.35
- Ritger-Peppas release model coefficient (y = k t^n) [2]: y = 27.02t^n

SMILES: CC1(C)C2CCC1(C)C(O)C2 (stereo not shown) [borneol]
- Cytotoxic effects on bEnd.3 cells [4]: no cytotoxic effects
- Time at which maximum BBB permeability is reached [5]: 10 min
- ZO1 tension (CFP/FRET) [3]: increased but decreased after 15 min of borneol removal

SMILES: Cc1coc2c1C(=O)C(=O)c1c-2ccc2c1CCCC2(C)C [TSA, tanshinone IIA]
- Qe, pseudo-first order [1]: 4.14 mg/g
- Qe, pseudo-second order [1]: 4.74 mg/g
- k, pseudo-first order [1]: 0.89
- k, pseudo-second order [1]: 0.21
- Ritger-Peppas release exponent n [2]: n = 0.37
- Ritger-Peppas release model coefficient (y = k t^n) [2]: y = 24.68t^n

SMILES: O=C(/C=C/c1ccc(O)c(O)c1)O[C@H](Cc1ccc(O)c(O)c1)C(=O)O [RA, rosmarinic acid]
- Qe, pseudo-first order [1]: 6.23 mg/g
- Qe, pseudo-second order [1]: 7.78 mg/g
- k, pseudo-first order [1]: 0.29
- k, pseudo-second order [1]: 0.03
- Ritger-Peppas release exponent n [2]: n = 0.83
- Ritger-Peppas release model coefficient (y = k t^n) [2]: y = 6.28t^n
